In assay [1] the test system is MMP1 expression from activated SFs (RASF). The assay can be described thus: MMP assay: MMP1 expression (ELISA) by TNF-α-triggered RASFs. The note with it: RASF triggered with TNFα, MMP1 ELISA after 48 hrs, semi-quantitative score. The format is cell-based. The procedure: A 384-well format ELISA for measurement of MMP1 is developed. Various primary antibodies are tested, as well as various ELISA protocols. The following protocol is developed and validated to measure MMP1 levels in SF supernatant in 384 well plates: white Lumitrac 600 384 well plates (Greiner) are coated with 2 μg/mL anti-MMP1 antibody MAB1346 (Chemicon). The antibody is diluted in buffer 40 (1.21 g Tris base (Sigma), 0.58 g NaCl (Calbiochem) and 5 mL 10% NaN3 (Sigma) in 1 L milliQ water and adjusted to pH 8.5). After overnight incubation at 4° C., plates are washed with PBS (80 g NaCl, 2 g KCl (Sigma), 11.5 g Na2HPO4.7H2O and 2 g KH2PO4 in 10 L milliQ; pH 7.4) and blocked with 100 μL/well Casein buffer (2% Casein (VWR International) in PBS). Next day, casein buffer is removed from ELISA plates and replaced by 50 μL/well EC buffer (4 g casein, 2.13 g Na2HPO4 (Sigma), 2 g bovine albumin (Sigma), 0.69 g NaH2PO4.H2O (Sigma), 0.5 g CHAPS (Roche), 23.3 g NaCl, 4 mL 0.5 M EDTA pH 8 (Invitrogen), 5 mL 10% NaN3 in 1 L milliQ and adjusted to pH 7.0). 0.25 mM DTT (Sigma) is added to the thawed sample plates. After removal of the EC buffer, 20 μL of sample is transferred to the ELISA plates. After overnight incubation at 4° C. plates are washed twice with PBS and once with PBST (PBS with 0.05% Tween-20 (Sigma)) and incubated with 35 μL/well biotinylated anti-MMP1 antibody solution (R&D). This secondary antibody is diluted in buffer C (0.82 g NaH2PO4.H2O, 4.82 g Na2HPO4, 46.6 g NaCl, 20 g bovine albumin and 4 ml, 0.5M EDTA pH 8 in 2 L milliQ and adjusted to pH 7.0) at a concentration of 5 μg/mL. After 2 h of incubation at RT, plates are washed as described above and incubated with 50 μL/well streptavidin-HRP conjugate (Biosource). Streptavidin-HRP conjugate is diluted in buffer C at a concentration of 0.25 μg/mL. After 45 min, plates are washed as described above and incubated for 5 min with 50 μL/well BM Chem ELISA Substrate (Roche). Readout is performed on the Luminoscan Ascent Luminometer (Labsystems) with an integration time of 200 msec or with an Envision reader (Perkin Elmer).
SFs were acquired at passage 1 from a commercial supplier (Cell applications, Inc.). SFs are cultured in DMEM supplemented with 10% heat-inactivated FBS, 1× penicillin/streptomycin (Invitrogen) at 37° C., 10% CO2 until passage 6. Aliquots of the cells are frozen and cryopreserved in liquid nitrogen. Starting from a cryopreserved aliquot, cells are further expanded by sub-culturing cells at 1/3 ratio every week. Cells between passage 10 and 12 are routinely used in compound testing according to the following protocol.
Starting from the compound master stocks (all at 10 mM concentration in 100% DMSO) a 3-fold serial dilution is made in 96-well plates in 100% DMSO. Then, plates are further diluted 45-fold in M199 medium supplemented with 1% heat-inactivated FBS to obtain a intermediate work stock.
At day 1, RASFs are seeded in 96 well plates (flat bottom, tissue culture treated, Greiner) at a density of 3000 cells/well in complete synovial growth medium (Cell Applications). Day 5, the medium is completely removed from the cells, and replaced by 81 μL of M199 medium supplemented with 1% heat-inactivated FBS followed by addition of 10 μL compound out of the intermediate work stock. After an incubation period of 90 minutes, which allows the compounds to equilibrate and enter the cells, cells are stimulated with either TNF-α or ‘complex trigger’. TNF-α trigger is added in a volume of […] to obtain final concentration of 10 ng/mL. For that, TNF-α stock (PeproTech) at 10 μg/mL was diluted to 100 ng/mL TNF-α in M199 medium supplemented with 1% FBS. ‘Complex trigger’ mix is added in a volume of 20 μL to obtain a final concentration of 12.5%. For that, ‘complex trigger’ mix, is diluted to 80% with M199 medium supplemented with 1% FBS. […]

In another assay the target is T1, TAK1-TAB1 fusion protein (Homo sapiens, UniProt O43318).
T1 construct: purchased Upstate 14-600
T1 sequence (O43318 with tags, fused parts or gaps limits assumed): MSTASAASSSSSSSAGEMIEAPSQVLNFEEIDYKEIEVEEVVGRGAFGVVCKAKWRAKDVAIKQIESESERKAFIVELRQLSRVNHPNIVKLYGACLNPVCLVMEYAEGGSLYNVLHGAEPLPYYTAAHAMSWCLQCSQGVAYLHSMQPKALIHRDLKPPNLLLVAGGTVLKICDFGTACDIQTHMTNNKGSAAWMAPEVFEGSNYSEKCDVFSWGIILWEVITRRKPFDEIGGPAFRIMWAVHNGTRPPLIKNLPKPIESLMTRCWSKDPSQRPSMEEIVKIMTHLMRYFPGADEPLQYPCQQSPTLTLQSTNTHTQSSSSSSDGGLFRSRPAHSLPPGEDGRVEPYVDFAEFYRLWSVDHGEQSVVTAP
Briefly: In vitro TAK1 kinase assay (33P-ATP, casein substrate). The conditions noted are these: semi-quantitative score, at least two independent experiments. The format is biochemical. As to the method:
For assessing TAK1 inhibition, active TAK1-TAB1 fusion protein was used from Upstate (Cat. No, 14-600). Kinase reactions are set up in 96-well polypropylene plates in 25 μL containing 0.5 mU TAK1-TAB1 fusion protein, […], 0.01 μCi/μL [^33P]-γ-ATP, 0.1 mg/mL casein substrate in 1× reaction buffer containing 10 mM MOPS pH 7.0, 1 mM EDTA.
Starting from the compound master stocks (all at 10 mM concentration in 100% DMSO) a 3-fold serial dilution is made in 96-well plates in 100% DMSO. Plates are further diluted […] in H2O containing 3.5% DMSO, to obtain an intermediate work stock with compounds at 5× the final assay concentration in 5% DMSO.
5 μL of the intermediate stock is transferred into V-bottom 96 well polypropylene plates and 11 μL of Enzyme mix is added. Enzyme mix is made by combining 5 μL 5× reaction buffer ([…] pH 7.0, 1 mM EDTA), 5 μL casein (Sigma) diluted in H2O to 0.5 mg/mL and 1 μL of TAK1-TAB1 fusion protein that was prediluted to 0.5 mU/μL in 1× enzyme dilution buffer (20 mM MOPS pH 7.0, 0.1 mM EDTA, 0.01% Brij-35, 5% glycerol, 1 mM DTT, 1 mg/ml BSA).
The reactions are started by the addition of 9 μL of mixture containing ATP (20.83 uM) and [^33P]-γ-ATP (0.028 μCi/μL).
The assay is stopped 90 minutes after incubation at 30° C. by the addition of 25 μL phosphoric acid (150 mM). The label incorporated into the casein substrate is separated from labeled unincorporated ATP by filtration onto 96-well filter plates using a harvester device. After 6 washes with 75 mM phosphoric acid, the bottom of the filter plates are sealed, and incorporated label is quantified after addition of 40 μL scintillation fluid using TopCount.
Based on these percent inhibition data obtained in at least two independent experiments for the compounds, compounds are ranked using semi-quantitative scores. Table A below lists a number of compounds which have been or can be prepared according to the synthetic methods described herein. Semi-quantitative score: • *>3001 nM • ** 1001-3000 nM • *** 101-1000 nM • ****<100 nM

The results in this text go back to patent publication US20120010206A1, “IMIDAZOLOPYRIDINE COMPOUNDS USEFUL FOR THE TREATMENT OF DEGENERATIVE AND INFLAMMATORY DISEASES” (priority 2006, published 2012).

Regarding `CN1CCN(c2ccc(Nc3ccc(-c4ccc(C(N)=O)cc4)n4ccnc34)cc2)CC1` [Compound 3, 4-{8-[4-(4-Methyl-piperazin-1-yl)-phenylamino]-imidazo[1,2-a]pyridin-5-yl}-benzamide], the EC50 (commonly the midpoint of the concentration-response curve) in assay [1] is below 100 nM. Further, the IC50 – broadly, the concentration needed to halve the response being measured – against TAK1-TAB1 fusion protein is 101 to 1000 nM.

The compound `Cc1cc(CNC(=O)c2ccc(Nc3ccc(-c4ccc5c(c4)CNC5=O)n4ccnc34)cc2)no1` [Compound 37, N-((5-methylisoxazol-3-yl)methyl)-4-(5-(1-oxoisoindolin-5-yl)imidazo[1,2-a]pyridin-8-ylamino)benzamide] showed an EC50 in assay [1] of 1000 to 3000 nM. On TAK1-TAB1 fusion protein, the IC50 fell in the range of 1000 to 3000 nM.

`O=C(NCCCN1CCCC1)c1ccc(Nc2ccc(-c3ccc4c(c3)CNC4=O)n3ccnc23)cc1` [Compound 51, 4-(5-(1-oxoisoindolin-5-yl)imidazo[1,2-a]pyridin-8-ylamino)-N-(3-(pyrrolidin-1-yl)propyl)benzamide]: the half-maximal effective concentration (EC50) in assay [1] was above 3000 nM. The compound also came in with an IC50 against TAK1-TAB1 fusion protein of 101 to 1000 nM.

`CN1CCN(c2ccc(Nc3ccc(-c4cn[nH]c4)n4ccnc34)c(F)c2)CC1` [Compound 7, [2-Fluoro-4-(4-methyl-piperazin-1-yl)-phenyl]-[5-(1H-pyrazol-4-yl)-imidazo[1,2-a]pyridin-8-yl]amine] registered an EC50 in assay [1] of 101 to 1000 nM. For the same compound, the 50% inhibitory concentration (IC50) against TAK1-TAB1 fusion protein lay in the range of 101 to 1000 nM.

Turning to `CCC(CC)N1CCN(c2ccc(Nc3ccc(-c4ccc(C(N)=O)cc4)n4ccnc34)cc2)CC1` [Compound 80], the EC50 in assay [1] is above 3000 nM. On TAK1-TAB1 fusion protein, the IC50 was 101 to 1000 nM.

For the compound `CN1CCN(c2ccc(Nc3ccc(-c4cn[nH]c4)n4ccnc34)cc2)CC1` [Compound 4, [4-(4-Methyl-piperazin-1-yl)-phenyl]-[5-(1H-pyrazol-4-yl)-imidazo[1,2-a]pyridin-8-yl]-amine], in assay [1], the EC50 was above 3000 nM. The same compound returned an IC50 against TAK1-TAB1 fusion protein of 101 to 1000 nM.

`CN(C)c1ccc(CNC(=O)c2ccc(Nc3ccc(-c4ccc5c(c4)CNC5=O)n4ccnc34)cc2)cc1` [Compound 33] came in with an EC50 in assay [1] of 101 to 1000 nM. The IC50 on TAK1-TAB1 fusion protein lay in the range of 101 to 1000 nM.

Regarding `O=c1cc(-c2ccc(Nc3ccc(C4CCN(CC(F)F)CC4)cc3)c3nccn23)cc[nH]1` [Compound 107, 4-(8-{4-[1-(2,2-Difluoro-ethyl)-piperidin-4-yl]-phenylamino)-imidazo[1,2-a]pyridin-5-yl)-1H-pyridin-2-one], the EC50 in assay [1] is 1000 to 3000 nM. Also, the IC50 against TAK1-TAB1 fusion protein was in the range of 1000 to 3000 nM.

As to `CC(C)N1CCN(c2ccc(Nc3ccc(-c4cc[nH]c(=O)c4)n4ccnc34)cc2)CC1` [Compound 74], in assay [1], the EC50 was in the range of 101 to 1000 nM. Also, at TAK1-TAB1 fusion protein, the IC50 is below 100 nM.

For `O=C(NCCN1CCOCC1)c1ccc(Nc2ccc(-c3ccc4c(c3)CNC4=O)n3ccnc23)cc1` [Compound 43, N-(2-morpholinoethyl)-4-(5-(1-oxoisoindolin-5-yl)imidazo[1,2-a]pyridin-8-ylamino)benzamide], the 50% effective concentration (EC50) in assay [1] is above 3000 nM. In addition, the IC50 against TAK1-TAB1 fusion protein lay in the range of 101 to 1000 nM.

The compound `CCN(CC)CCNC(=O)c1ccc(Nc2ccc(-c3ccc4c(c3)CNC4=O)n3ccnc23)cc1` [Compound 23, N-(2-(diethylamino)ethyl)-4-(5-(1-oxoisoindolin-5-yl)imidazo[1,2-a]pyridin-8-ylamino) benzamide] returned an EC50 in assay [1] above 3000 nM. The IC50 against TAK1-TAB1 fusion protein was below 100 nM.

The compound `O=C1NCc2cc(-c3ccc(Nc4ccc(S(=O)(=O)N5CCOCC5)cc4)c4nccn34)ccc21` [Compound 16, 5-(8-(4-(morpholinosulfonyl)phenylamino)imidazo[1,2-a]pyridin-5-yl)isoindolin-1-one] showed an EC50 in assay [1] above 3000 nM. The IC50 against TAK1-TAB1 fusion protein lay within 101 to 1000 nM.

`CN(C)C(=O)c1ccc(Nc2ccc(-c3ccc4c(c3)CNC4=O)n3ccnc23)cc1` [Compound 14, N,N-dimethyl-4-(5-(1-oxoisoindolin-5-yl)imidazo[1,2-a]pyridin-8-ylamino)benzamide] registered an EC50 in assay [1] above 3000 nM. At TAK1-TAB1 fusion protein, this compound showed an IC50 of 101 to 1000 nM.

On to `c1cn2c(-c3cn[nH]c3)ccc(Nc3ccc(N4CCOCC4)cc3)c2n1` [Compound 2, (4-Morpholin-4-yl-phenyl)-[5-(1H-pyrazol-4-yl)-imidazo[1,2-a]pyridin-8-yl]-amine], for which the EC50 in assay [1] was in the range of 101 to 1000 nM. At TAK1-TAB1 fusion protein, this compound yielded an IC50 of 101 to 1000 nM.
